Data set [1] in a line: Intrinsic clearance in human liver microsomes at 0.1 to 0.2 umol/L incubated for 30 mins in presence of NADPH by LC-MS/MS analysis. In kind it is ADME, Microsome. The following applies: read-out: CLH.
A short description of data set [2]: Tmax in Sprague-Dawley rat at 1 mg/kg, po by LC-MS/MS analysis. The following applies: in vivo. In kind it is ADME, organism-based.
The nature of data set [3]: AUC (0 to 24 hrs) in Sprague-Dawley rat at 1 mg/kg, po by LC-MS/MS analysis. In kind it is ADME, organism-based. Also noted: time < 24 hr, dose 1 mg/kg, route oral. Particulars: in vivo.
The nature of data set [4]: Drug metabolism in Sprague-Dawley rat hepatocytes assessed as esterase-mediated anilide hydrolysis. The following applies: isolated protein. It counts as ADME, cell-based.
Data set [5] is described as follows: Total clearance in Sprague-Dawley rat at 1 mg/kg, iv by LC-MS/MS analysis. In kind it is ADME, organism-based. The following applies: in vivo.
The nature of data set [6]: Elimination half-life in Sprague-Dawley rat at 1 mg/kg, iv by LC-MS/MS analysis. In kind it is ADME, organism-based. The following applies: in vivo, read-out: beta t1/2 (converted).
Data set [7] can be described thus: Volume of distribution at steady state in Sprague-Dawley rat at 1 mg/kg, iv by LC-MS/MS analysis. It counts as ADME, organism-based. Particulars: in vivo, read-out: Vdss.
Data set [8] is described as follows: Cmax in Sprague-Dawley rat at 1 mg/kg, po by LC-MS/MS analysis. In kind it is ADME, organism-based. Particulars: in vivo. Further details: dose 1 mg/kg, route oral.
Data set [9] can be described thus: AUC (0 to 24 hrs) in Sprague-Dawley rat at 1 mg/kg, iv by LC-MS/MS analysis. The following applies: in vivo. In kind it is ADME, organism-based. Also noted: time < 24 hr, dose 1 mg/kg, route intravenous.
Data set [10] is described as follows: Oral bioavailability in Sprague-Dawley rat at 1 mg/kg by LC-MS/MS analysis. The following applies: in vivo. In kind it is ADME, organism-based.

As to `COc1ccc(CN2CCN(C(=O)Nc3ccc(C(=O)N4CCN(Cc5ccc(C(F)(F)F)cc5)CC4)cc3)CC2)cc1`, the CLint scaled in data set [1] was determined as 185 mL/min/kg.

In the case of `COc1ccc(CN2CCC(C(=O)Nc3ccc(C(=O)N4CCN(Cc5ccc(C(F)(F)F)cc5)CC4)cc3)CC2)cn1`, in data set [2], the Tmax worked out at 0.5 h. Also, the AUC(0-t) at 24 h in data set [3] came out at 13.3 ng·h/mL; in data set [9] it was 123 ng·h/mL. The Drug metabolism result in data set [4] was “Metabolite_Detected”. The compound further displayed a clearance in data set [5] of 137 mL/min/kg. Also, in data set [6], the half-life is 210 min. The Vd in data set [7] was 50.9 L/kg. Besides, the highest concentration (Cmax) in [8] was 1.9 ng/mL. Besides, the bioavailability in [10] worked out at 11%. For the same compound, in data set [1], the CLint scaled is 77 mL/min/kg.

`COc1ccc(CN2CCC(c3ccc4[nH]c(C(=O)N5CCN(Cc6ccc(C(F)(F)F)cc6)CC5)nc4c3)CC2)cn1.Cc1ccc(S(=O)(=O)O)cc1.Cc1ccc(S(=O)(=O)O)cc1`: in data set [2], the time of peak concentration (Tmax) stood at 1.7 h. Moreover, the results for the exposure AUC(0-t) at 24 h in data set [3] and in data set [9] were 705 ng·h/mL and 887 ng·h/mL, respectively. Besides, the clearance in data set [5] was 19 mL/min/kg. Moreover, the half-life in data set [6] is 216 min. Also, in data set [7], the Vd came out at 4.6 L/kg. In data set [8], this compound returned a Cmax of 72 ng/mL. Besides, the bioavailability in [10] was 80%. Besides, the CLint scaled in data set [1] came out at 61 mL/min/kg.

Turning to `O=C(Nc1ccc(C(=O)N2CCN(Cc3ccc(C(F)(F)F)cc3)CC2)cc1)N1CCN(Cc2ccc(C(F)(F)F)cc2)CC1`, in data set [1], the CLint scaled worked out at 158 mL/min/kg.

One may read the Tmax as the time at which the peak concentration occurs. In general, AUC(0-t) refers to exposure summed from dosing to a finite time, without extrapolation to infinity. Lower therefore signals low exposure. Broadly, the clearance is a measure of how efficiently the substance is removed, as volume per time. Low values mean a low capacity for elimination, high ones a high capacity for elimination. Broadly, the Cmax is the peak of the concentration-time curve. Usually bioavailability stands for dose-corrected exposure relative to a reference, in per cent. Higher therefore signals much systemic uptake.

Values taken from ChEMBL document CHEMBL4627268, “Development of a potent and orally active activator of adenosine monophosphate-activated protein kinase (AMPK), ASP4132, as a clinical candidate for the treatment of human cancer” (Bioorg Med Chem, 2020).
